One test deals with T1, purified human MAP4K4 kinase domain (Homo sapiens, UniProt O95819).
T1 construct: purified human MAP4K4 kinase domain
T1 sequence (O95819 25-289 limits assumed): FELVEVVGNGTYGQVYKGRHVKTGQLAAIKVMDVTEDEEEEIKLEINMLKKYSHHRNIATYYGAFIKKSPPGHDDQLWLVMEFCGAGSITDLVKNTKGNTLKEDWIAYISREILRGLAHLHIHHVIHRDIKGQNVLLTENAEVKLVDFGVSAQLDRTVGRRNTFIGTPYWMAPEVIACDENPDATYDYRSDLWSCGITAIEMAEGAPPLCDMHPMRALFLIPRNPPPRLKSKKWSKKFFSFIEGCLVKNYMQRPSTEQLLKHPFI
Briefly: MAP4K4 Inhibition Assay Protocol No. 2 (Z'-LYTE FRET). The settings on record: Assay 2; 1 nM enzyme, 10 uM ATP, 60 min. Format: biochemical. The text has this:
The kinase activity of purified human MAP4K4 kinase domain was monitored using Z'-LYTE™ technology from Invitrogen to determine inhibition constants (IC50) of small molecule inhibitors. The Z'-LYTE™ biochemical assay employs a fluorescence-based, coupled-enzyme format and is based on the differential sensitivity of phosphorylated and non-phosphorylated peptides to proteolytic cleavage. In the primary reaction, the kinase transfers the gamma-phosphate of ATP to a single tyrosine, serine or threonine residue in a synthetic FRET-peptide. In the secondary reaction, a site-specific protease recognizes and cleaves non-phosphorylated FRET-peptides. Phosphorylation of FRET-peptides suppresses cleavage by the Development Reagent. Cleavage disrupts FRET between the donor (i.e., coumarin) and acceptor (i.e., fluorescein) fluorophores on the FRET-peptide, whereas uncleaved, phosphorylated FRET-peptides maintain FRET. To determine inhibition constants (IC50), compounds were serially diluted in DMSO and added to 10 uL kinase reactions containing 1 nM purified MAP4K4 enzyme, 2 uM ser/thr7 Z'-LYTE™ substrate, 10 uMATP, 50 mM Hepes (pH 7.5), 10 mM MgCl2, 1 mM EGTA, 0.01% Brij-35, and 2% DMSO. Reactions were incubated at room temperature in Corning Black 384 well plates (Corning#3573) for 60 minutes and stopped by the addition of 5 uL of Z'-LYTE™ development reagent A and incubated at room temp for 60 minutes. The plate is then analyzed on Perkin Elmer Envision by FRET mode. The high ratio of coumarin/fluorescein represents 0% phosphorylation rate while low ratio of coumarin/fluorescein represents 100% phosphorylation rate. The following equations are used to determine extent of peptide phosphorylation or inhibition: […]
For `Nc1ncc(CNC(=O)C2CC2)c2ccc(-c3cccc(F)c3)cc12` [Example 6, N-[[1-amino-7-(3-fluorophenyl)-4-isoquinolyl]methyl]cyclopropanecarboxamide], the IC50 (as a rule, the midpoint of a concentration-inhibition curve) turned out to be 0.0294 µM.

`CN1CC(NC(=O)c2cnc(N)c3cc(-c4cccc(F)c4)ccc23)C1` [Example 7, 1-amino-7-(3-fluorophenyl)-N-(1-methylazetidin-3-yl)isoquinoline-4-carboxamide]: the IC50 was 0.776 µM.

`CNC(=O)N1CC(NC(=O)c2cnc(N)c3cc(-c4cccc(F)c4)ccc23)C1` [Example 8, 1-amino-7-(3-fluorophenyl)-N-[1-(methylcarbamoyl)azetidin-3-yl]isoquinoline-4-carboxamide]: the IC50 is 0.015 µM.

In turn, `Nc1ncc(C(=O)NC2CCC2)c2ccc(-c3cccc(F)c3)nc12` [Example 33, 8-amino-N-cyclobutyl-2-(3-fluorophenyl)-1,7-naphthyridine-5-carboxamide] gave an IC50 of 0.00165 µM.

As to `CNC(=O)N1CC(NC(=O)c2cnc(N)c3nc(-c4cccc(F)c4)ccc23)C1` [Example 34, 8-amino-2-(3-fluorophenyl)-N-(1-(methylcarbamoyl)azetidin-3-yl)-1,7-naphthyridine-5-carboxamide], 0.0016 µM corresponded to half-maximal inhibition (IC50).

For the molecule `CCC(=O)N1CC(NC(=O)c2cnc(N)c3nc(-c4cccc(F)c4)ccc23)C1` [Example 35, 8-amino-2-(3-fluorophenyl)-N-(1-propionylazetidin-3-yl)-1,7-naphthyridine-5-carboxamide], the IC50 amounted to 0.00378 µM.

Molecule `Nc1ncc(C(=O)NC2CN(C(=O)C3CC3)C2)c2ccc(-c3cccc(F)c3)nc12` [Example 37, 8-amino-N-(1-(cyclopropanecarbonyl)azetidin-3-yl)-2-(3-fluorophenyl)-1,7-naphthyridine-5-carboxamide] had an IC50 of 0.00294 µM.

In turn, `Nc1ncc(C(=O)NC2COC2)c2ccc(-c3cccc(F)c3)nc12` [Example 38, 8-amino-2-(3-fluorophenyl)-N-(oxetan-3-yl)-1,7-naphthyridine-5-carboxamide] showed an IC50 of 0.00569 µM.

As to `COCC(=O)N1CC(NC(=O)c2cnc(N)c3nc(-c4cccc(F)c4)ccc23)C1` [Example 39, 8-amino-2-(3-fluorophenyl)-N-(1-(2-methoxyacetyl)azetidin-3-yl)-1,7-naphthyridine-5-carboxamide], the IC50 is 0.0044 µM.

In turn, `CC(C)CNC(=O)c1cnc(N)c2nc(-c3cccc(F)c3)ccc12` [Example 40, 8-amino-2-(3-fluorophenyl)-N-isobutyl-1,7-naphthyridine-5-carboxamide] gave an IC50 of 0.00563 µM.

For `CN(C(=O)c1cnc(N)c2nc(-c3cccc(F)c3)ccc12)C1CN(C(=O)C2CC2)C1` [Example 41, 8-amino-N-(1-(cyclopropanecarbonyl)azetidin-3-yl)-2-(3-fluorophenyl)-N-methyl-1,7-naphthyridine-5-carboxamide], it took 1.2 µM to reach half-maximal inhibition (IC50).

Regarding `Nc1ncc(-c2ncn[nH]2)c2ccc(-c3cccc(F)c3)nc12` [Example 42, 2-(3-fluorophenyl)-5-(1H-1,2,4-triazol-5-yl)-1,7-naphthyridin-8-amine], it took 0.00832 µM to reach half-maximal inhibition (IC50).

As for `Nc1ncc(-c2cn(CCN3CCOCC3)cn2)c2ccc(-c3cccc(F)c3)nc12` [Example 43, 2-(3-fluorophenyl)-5-(1-(2-morpholinoethyl)-1H-imidazol-4-yl)-1,7-naphthyridin-8-amine], it took 0.00248 µM to reach half-maximal inhibition (IC50).

`Nc1ncc(C(=O)NC2CN(C(=O)C3CC3)C2)c2ccc(-c3ccnc(F)c3)nc12` [Example 44, 8-amino-N-(1-(cyclopropanecarbonyl)azetidin-3-yl)-2-(2-fluoropyridin-4-yl)-1,7-naphthyridine-5-Carboxamide] came in with an IC50 of 0.00263 µM.

In turn, `Nc1ncc(CNS(=O)(=O)C2CC2)c2ccc(-c3cccc(F)c3)cc12` [Example 134, N-[[1-amino-7-(3-fluoro-phenyl)-4-isoquinolyl]methyl] cyclopropanesulfonamide] displayed an IC50 of 0.155 µM.

As for `CNC(=O)N1CCC(NC(=O)c2cnc(N)c3cc(-c4cccc(F)c4)ccc23)C1` (stereo not shown) [Example 135, 1-amino-7-(3-fluorophenyl)-N-[1-(methylcarbamoyl)pyrrolidin-3-yl] isoquinoline-4-carboxamide], half-maximal inhibition (IC50) was put at 0.162 µM.

On to `Nc1ncc(CNC(=O)c2ccccc2)c2ccc(-c3cccc(F)c3)cc12` [Example 136, N-[[1-amino-7-(3-fluoro-phenyl)-4-isoquinolyl]methyl]benzamide], for which the IC50 was 0.919 µM.

Molecule `Nc1ncc(-c2cc(CO)ccn2)c2ccc(-c3cccc(F)c3)cc12` [Example 137, [2-[1-amino-7-(3-fluoro-phenyl)-4-isoquinolyl]-4-pyridyl]methanol] returned an IC50 of 0.0106 µM.

In turn, `Cn1ccc(-c2cnc(N)c3cc(-c4cccc(F)c4)ccc23)n1` [Example 138, 7-(3-fluorophenyl)-4-(1-methylpyrazol-3-yl) isoquinolin-1-amine] returned an IC50 of 0.0145 µM.

As to `CCOC(=O)c1cnc(N)c2nc(-c3cccc(OC(F)(F)F)c3)ccc12` [Example 139, ethyl 8-amino-2-[3-(trifluoro-methoxy)phenyl]-1,7-naphthyridine-5-carboxylate], it took 0.00216 µM to reach half-maximal inhibition (IC50).

As to `CCOC(=O)c1cnc(N)c2nc(-c3cccc(OC(F)F)c3)ccc12` [Example 140, ethyl 8-amino-2-[3-(difluoro-methoxy)phenyl]-1,7-naphthyridine-5-carboxylate], 0.00769 µM corresponded to half-maximal inhibition (IC50).

Turning to `CCOC(=O)c1cnc(N)c2nc(-c3ccnc(C)c3)ccc12` [Example 141, ethyl 8-amino-2-(2-methyl-4-pyridyl)-1,7-naphthyridine-5-carboxylate], the IC50 was found to be 0.00339 µM.

Molecule `CCOC(=O)c1cnc(N)c2nc(-c3cccc(S(=O)(=O)N(C)C)c3)ccc12` [Example 142, ethyl 8-amino-2-[3-(dimethyl-sulfamoyl)phenyl]-1,7-naphthyridine-5-carboxylate] registered an IC50 of 0.48 µM.

`CCOC(=O)c1cnc(N)c2nc(-c3cccc(S(C)(=O)=O)c3)ccc12` [Example 143, ethyl 8-amino-2-(3-methyl-sulfonylphenyl)-1,7-naphthyridine-5-carboxylate] returned an IC50 of 0.0636 µM.

Molecule `CCOC(=O)c1cnc(N)c2nc(-c3cccc(C(=O)N(C)C)c3)ccc12` [Example 144, ethyl 8-amino-2-[3-(dimethyl-carbamoyl)phenyl]-1,7-naphthyridine-5-carboxylate] gave an IC50 of 0.0031 µM.

Molecule `CCOC(=O)c1cnc(N)c2nc(-c3cc(F)cc(F)c3)ccc12` [Example 145, ethyl 8-amino-2-(3,5-difluoro-phenyl)-1,7-naphthyridine-5-carboxylate] gave an IC50 of 0.00184 µM.

Molecule `CCOC(=O)c1cnc(N)c2nc(-c3cccc(OC(C)C)c3)ccc12` [Example 146, ethyl 8-amino-2-(3-isopropoxy-phenyl)-1,7-naphthyridine-5-carboxylate] had an IC50 of 0.0326 µM.

For `CCOC(=O)c1cnc(N)c2nc(-c3cccc(C#N)c3)ccc12` [Example 147, ethyl 8-amino-2-(3-cyanophenyl)-1,7-naphthyridine-5-carboxylate], the IC50 came to 0.00145 µM.

As to `CCOC(=O)c1cnc(N)c2nc(-c3cccc(OC)c3)ccc12` [Example 148, ethyl 8-amino-2-(3-methoxy-phenyl)-1,7-naphthyridine-5-carboxylate], the IC50 was determined as 0.00853 µM.

The molecule `CCOC(=O)c1cnc(N)c2nc(-c3ccc(Cl)cc3)ccc12` [Example 149, ethyl 8-amino-2-(4-chlorophenyl)-1,7-naphthyridine-5-carboxylate] gave an IC50 of 0.0278 µM.

Consider `CCOC(=O)c1cnc(N)c2nc(-c3ccc(OC)cc3)ccc12` [Example 150, ethyl 8-amino-2-(4-methoxy-phenyl)-1,7-naphthyridine-5-carboxylate], for which half-maximal inhibition (IC50) required 0.0212 µM.

`CCOC(=O)c1cnc(N)c2nc(-c3ccc(F)cc3C)ccc12` [Example 153, ethyl 8-amino-2-(4-fluoro-2-methyl-phenyl)-1,7-naphthyridine-5-carboxylate] gave an IC50 of 0.00652 µM.

Consider `CCOC(=O)c1cnc(N)c2nc(-c3ccc(Cl)cc3Cl)ccc12` [Example 154, ethyl 8-amino-2-(2,4-dichloro-phenyl)-1,7-naphthyridine-5-carboxylate], for which the IC50 amounted to 0.382 µM.

As for `CCOC(=O)c1cnc(N)c2nc(-c3ccc(OC)cc3Cl)ccc12` [Example 155, ethyl 8-amino-2-(2-chloro-4-methoxy-phenyl)-1,7-naphthyridine-5-carboxylate], the IC50 stood at 0.134 µM.

The target in a further test is T1, purified human MAP4K4 kinase domain. As to the kind of experiment: MAP4K4 Inhibition Assay Protocol No. 1 (Caliper LabChip, moesin-derived peptide phosphorylation). Format: biochemical. To be noted: Assay 1; 1 nM enzyme, 10 uM ATP, 45 min. Put shortly:
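1 nM enzyme with 1 uM 5-carboxyfluorescein-labelled moesin peptide and 10 uM ATP in 50 mM Hepes pH 7.2, 10 mM MgCl2, 2% DMSO, 45 min at room temperature, then EDTA stop. Phosphorylated fraction of peptide measured by microfluidic mobility shift; IC50 from four-parameter fit.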
For the molecule `Nc1ncc(CNC(=O)C2CC2)c2ccc(-c3cccc(F)c3)cc12` [Example 6, N-[[1-amino-7-(3-fluorophenyl)-4-isoquinolyl]methyl]cyclopropanecarboxamide], the IC50 came out at 0.0414 µM.

`CN1CC(NC(=O)c2cnc(N)c3cc(-c4cccc(F)c4)ccc23)C1` [Example 7, 1-amino-7-(3-fluorophenyl)-N-(1-methylazetidin-3-yl)isoquinoline-4-carboxamide] displayed an IC50 of 0.869 µM.

Consider `CNC(=O)N1CC(NC(=O)c2cnc(N)c3cc(-c4cccc(F)c4)ccc23)C1` [Example 8, 1-amino-7-(3-fluorophenyl)-N-[1-(methylcarbamoyl)azetidin-3-yl]isoquinoline-4-carboxamide], for which the IC50 amounted to 0.0112 µM.

Source of the values: patent US9586956B2, “Isoquinoline and naphthyridine derivatives” (Genentech, Inc., priority 2012, dated 2017).
